What all share (type): cell-based
In assay [1] the target is T1, hP2X4 (Homo sapiens, UniProt Q99571).
T1 sequence (Q99571 1-388): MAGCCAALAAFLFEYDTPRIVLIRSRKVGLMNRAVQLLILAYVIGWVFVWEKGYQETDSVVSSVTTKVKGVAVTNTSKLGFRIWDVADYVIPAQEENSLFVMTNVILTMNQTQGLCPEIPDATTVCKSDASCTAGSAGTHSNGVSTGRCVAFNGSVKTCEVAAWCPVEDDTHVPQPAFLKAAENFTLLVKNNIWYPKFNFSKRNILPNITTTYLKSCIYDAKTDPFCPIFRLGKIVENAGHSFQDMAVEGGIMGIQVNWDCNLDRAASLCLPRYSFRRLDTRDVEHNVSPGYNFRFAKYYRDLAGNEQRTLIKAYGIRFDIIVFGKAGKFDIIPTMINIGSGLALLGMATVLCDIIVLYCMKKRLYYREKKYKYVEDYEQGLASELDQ
Briefly: TEVC inhibition dose-response (IC50), hP2X4 in Xenopus laevis oocytes. The note with it: 50 μM ATP, mean ± SD, triplicate. An excerpt: (§1) To evaluate the inhibitory response of an antagonist for a dilution series, an initial excitatory signal was evoked at a subtype-specific concentration of ATP. Next, the antagonist was applied at a test concentration for 60 s and then coapplied at the same test concentration of the antagonist with the identical subtype-specific concentration of ATP. The antagonized signal was then normalized against the preceding excitatory signal evoked by ATP for each individual oocyte tested. The pre- and post-antagonist signals were evoked by 10 μM ATP for hP2X1, 10 μM ATP for hP2X2, 1 μM ATP for hP2X3, 50 μM ATP for hP2X4, and 100 μM ATP for P2X7. For the K297V mutation in rP2X7, pre- and post-antagonist signals were evoked by 300 μM ATP. Each dataset was then fit to a nonlinear regression named “[inhibitor] vs. response – Variable slope (four parameters)” in GraphPad Prism 9 to produce a sigmoidal curve and afford an IC50 value. Each singular condition was used to generate an average which is reported plus or minus its SD between three discrete trials.

The target of assay [2] is T2, hP2X3 (Homo sapiens, UniProt P56373).
T2 construct: The hP2X1-WT, hP2X2-WT, hP2X3-WT, hP2X4-WT, and hP2X7-WT constructs used for electrophysiology are similarly unmodified full-length, wild-type receptor constructs; expressed in transfected cells; host or cells: Xenopus laevis oocytes injected with mRNA made from pcDNA3.1x
T2 sequence (P56373 1-397): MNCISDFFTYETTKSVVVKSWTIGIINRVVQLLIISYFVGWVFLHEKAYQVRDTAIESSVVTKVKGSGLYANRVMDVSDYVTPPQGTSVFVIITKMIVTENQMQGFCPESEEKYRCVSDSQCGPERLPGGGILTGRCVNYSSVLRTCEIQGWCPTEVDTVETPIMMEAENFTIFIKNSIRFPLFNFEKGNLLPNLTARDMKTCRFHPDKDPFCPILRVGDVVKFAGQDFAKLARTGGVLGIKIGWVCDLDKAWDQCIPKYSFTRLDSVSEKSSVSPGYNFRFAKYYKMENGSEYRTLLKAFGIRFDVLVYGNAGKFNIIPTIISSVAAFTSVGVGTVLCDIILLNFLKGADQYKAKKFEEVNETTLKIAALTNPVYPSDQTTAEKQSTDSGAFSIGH
Nature of the assay: TEVC inhibition dose-response (IC50), hP2X3 in Xenopus laevis oocytes. The following applies: 1 μM ATP, mean ± SD, triplicate.
Text: as §1

Assay [3] concerns the target T3, hP2X1 (Homo sapiens, UniProt P51575).
T3 construct: The hP2X1-WT, hP2X2-WT, hP2X3-WT, hP2X4-WT, and hP2X7-WT constructs used for electrophysiology are similarly unmodified full-length, wild-type receptor constructs; expressed in transfected cells; host or cells: Xenopus laevis oocytes injected with mRNA made from pcDNA3.1x
T3 sequence (P51575 1-399): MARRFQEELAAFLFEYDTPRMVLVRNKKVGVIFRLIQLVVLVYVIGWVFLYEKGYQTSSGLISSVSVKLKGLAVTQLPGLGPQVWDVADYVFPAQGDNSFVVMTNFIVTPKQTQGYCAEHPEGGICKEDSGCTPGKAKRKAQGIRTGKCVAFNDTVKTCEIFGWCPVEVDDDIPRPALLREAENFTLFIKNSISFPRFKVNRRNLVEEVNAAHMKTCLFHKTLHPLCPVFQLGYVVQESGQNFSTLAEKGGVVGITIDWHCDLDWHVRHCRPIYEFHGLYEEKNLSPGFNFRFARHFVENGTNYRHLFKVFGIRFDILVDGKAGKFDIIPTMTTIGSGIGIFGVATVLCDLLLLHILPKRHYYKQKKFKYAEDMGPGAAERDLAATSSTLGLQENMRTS
Nature of the assay: TEVC inhibition dose-response (IC50), hP2X1 in Xenopus laevis oocytes. The following applies: 10 μM ATP, mean ± SD, triplicate.
Text: as §1

Assay [4] has as its target T4, hP2X2 (Homo sapiens, UniProt Q9UBL9).
T4 construct: The hP2X1-WT, hP2X2-WT, hP2X3-WT, hP2X4-WT, and hP2X7-WT constructs used for electrophysiology are similarly unmodified full-length, wild-type receptor constructs; expressed in transfected cells; host or cells: Xenopus laevis oocytes injected with mRNA made from pcDNA3.1x
T4 sequence (Q9UBL9 1-471): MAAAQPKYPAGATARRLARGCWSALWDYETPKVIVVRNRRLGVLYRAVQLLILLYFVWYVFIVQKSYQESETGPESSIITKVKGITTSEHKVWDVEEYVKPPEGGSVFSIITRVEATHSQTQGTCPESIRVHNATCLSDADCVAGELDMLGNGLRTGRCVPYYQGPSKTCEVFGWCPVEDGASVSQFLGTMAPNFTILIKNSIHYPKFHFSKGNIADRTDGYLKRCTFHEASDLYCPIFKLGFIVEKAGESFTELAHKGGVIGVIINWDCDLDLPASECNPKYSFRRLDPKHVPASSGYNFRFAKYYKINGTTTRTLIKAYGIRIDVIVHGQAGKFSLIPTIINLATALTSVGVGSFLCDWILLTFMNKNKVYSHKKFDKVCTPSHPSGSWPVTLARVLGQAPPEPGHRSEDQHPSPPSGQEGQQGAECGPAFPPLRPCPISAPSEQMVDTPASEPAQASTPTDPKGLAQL
Briefly: TEVC inhibition dose-response (IC50), hP2X2 in Xenopus laevis oocytes. The following applies: 10 μM ATP, mean ± SD, triplicate.
Text: as §1

For the molecule `O=S(=O)(O)c1ccc(N=C2C=CC(=C(c3ccc(Nc4ccc(S(=O)(=O)O)cc4)cc3)c3ccc(Nc4ccc(S(=O)(=O)O)cc4)cc3)C=C2)cc1` [methyl blue], the 50% inhibitory concentration (IC50) in assay [1] was 51 ± 6 µM; in assay [2], 4 ± 1 µM; in assay [3], 0.4 ± 0.1 µM; in assay [4] it was 13 ± 2 µM.

One may read the IC50 as the point on the concentration scale where inhibition reaches its midpoint. Low values mean inhibition by little substance, high ones a need for much substance.

These data come from article PMC11451537, “P2X7 receptors exhibit at least three modes of allosteric antagonism” (Science Advances, 2024).
